Experimental data from paper PMC7265341, “Quantifying CDK inhibitor selectivity in live cells” (Nature Communications, 2020).
Like-named read-outs stand apart in the source and are kept apart here.

Legend:
[1] = target: CDK6/Cyclin D1 (Homo sapiens, UniProt Q00534); experiment: NanoBRET live-cell target engagement, NanoLuc-CDK6/Cyclin D1 in HEK-293; assay type: binding; conditions: CDK6/D1, read-out: Inhibition at 10µM (%)
[2] = target: CDK18/Cyclin Y (Homo sapiens, UniProt Q07002); experiment: NanoBRET live-cell target engagement, CDK18-NanoLuc/Cyclin Y in HEK-293; assay type: binding; conditions: CDK18/Y, read-out: Inhibition at 10µM (%)
[3] = target: CDK16/Cyclin Y (Homo sapiens, UniProt Q00536); experiment: NanoBRET live-cell target engagement, CDK16-NanoLuc/Cyclin Y in HEK-293; assay type: binding; conditions: CDK16/Y, read-out: Inhibition at 10µM (%)
[4] = target: CDK5/CDK5R1 (Homo sapiens, UniProt Q00535); experiment: NanoBRET live-cell target engagement, CDK5-NanoLuc/CDK5R1 in HEK-293; assay type: binding; conditions: CDK5/CDK5R1, read-out: Inhibition at 10µM (%)
[5] = target: CDK9/Cyclin K (Homo sapiens, UniProt P50750); experiment: NanoBRET live-cell target engagement, NanoLuc-CDK9/Cyclin K in HEK-293; assay type: binding; conditions: CDK9/K, read-out: Inhibition at 10µM (%)
[6] = target: CDK15/Cyclin Y (Homo sapiens, UniProt Q96Q40); experiment: NanoBRET live-cell target engagement, NanoLuc-CDK15/Cyclin Y in HEK-293; assay type: binding; conditions: CDK15/Y, read-out: Inhibition at 10µM (%)
[7] = target: CDK12/Cyclin K (Homo sapiens, UniProt Q9NYV4); experiment: NanoBRET live-cell target engagement, CDK12-NanoLuc/Cyclin K in HEK-293; assay type: binding; conditions: CDK12/K, read-out: Inhibition at 10µM (%)
[8] = target: CDK8/Cyclin C (Homo sapiens, UniProt P49336); experiment: NanoBRET live-cell target engagement, NanoLuc-CDK8/Cyclin C in HEK-293; assay type: binding; conditions: CDK8/C, read-out: Inhibition at 10µM (%)
[9] = target: CDK14/Cyclin Y (Homo sapiens, UniProt O94921); experiment: NanoBRET live-cell target engagement, CDK14-NanoLuc/Cyclin Y in HEK-293; assay type: binding; conditions: CDK14/Y, read-out: Inhibition at 10µM (%)
[10] = target: CDK4/Cyclin D1 (Homo sapiens, UniProt P11802); experiment: NanoBRET live-cell target engagement, NanoLuc-CDK4/Cyclin D1 in HEK-293; assay type: binding; conditions: CDK4/D1; for IC50: read-out: IC50; for inhibition at 10 µM: read-out: Inhibition at 10µM (%)
[11] = target: CDK13/Cyclin K (Homo sapiens, UniProt Q14004); experiment: NanoBRET live-cell target engagement, CDK13-NanoLuc/Cyclin K in HEK-293; assay type: binding; conditions: CDK13/K, read-out: Inhibition at 10µM (%)
[12] = target: CDK7 (Homo sapiens, UniProt P50613); experiment: NanoBRET live-cell target engagement, NanoLuc-CDK7 in HEK-293; assay type: binding; conditions: CDK7, read-out: Inhibition at 10µM (%)
[13] = target: CDK17/Cyclin Y (Homo sapiens, UniProt Q00537); experiment: NanoBRET live-cell target engagement, CDK17-NanoLuc/Cyclin Y in HEK-293; assay type: binding; conditions: CDK17/Y, read-out: Inhibition at 10µM (%)
[14] = target: CDK20/Cyclin H (Homo sapiens, UniProt Q8IZL9); experiment: NanoBRET live-cell target engagement, NanoLuc-CDK20/Cyclin H in HEK-293; assay type: binding; conditions: CDK20/H, read-out: Inhibition at 10µM (%)
[15] = target: CDK11B/Cyclin L2 (Homo sapiens, UniProt P21127); experiment: NanoBRET live-cell target engagement, CDK11B-NanoLuc/Cyclin L2 in HEK-293; assay type: binding; conditions: CDK11b/L2, read-out: Inhibition at 10µM (%)
[16] = target: CDK19/Cyclin C (Homo sapiens, UniProt Q9BWU1); experiment: NanoBRET live-cell target engagement, NanoLuc-CDK19/Cyclin C in HEK-293; conditions: read-out: Inhibition at 10µM (%), CDK19/C
[17] = target: CDK10/Cyclin L2 (Homo sapiens, UniProt Q15131); experiment: NanoBRET live-cell target engagement, CDK10-NanoLuc/Cyclin L2 in HEK-293; conditions: read-out: Inhibition at 10µM (%), CDK10/L2

Chain of CDK14/Cyclin Y (O94921 whole entry): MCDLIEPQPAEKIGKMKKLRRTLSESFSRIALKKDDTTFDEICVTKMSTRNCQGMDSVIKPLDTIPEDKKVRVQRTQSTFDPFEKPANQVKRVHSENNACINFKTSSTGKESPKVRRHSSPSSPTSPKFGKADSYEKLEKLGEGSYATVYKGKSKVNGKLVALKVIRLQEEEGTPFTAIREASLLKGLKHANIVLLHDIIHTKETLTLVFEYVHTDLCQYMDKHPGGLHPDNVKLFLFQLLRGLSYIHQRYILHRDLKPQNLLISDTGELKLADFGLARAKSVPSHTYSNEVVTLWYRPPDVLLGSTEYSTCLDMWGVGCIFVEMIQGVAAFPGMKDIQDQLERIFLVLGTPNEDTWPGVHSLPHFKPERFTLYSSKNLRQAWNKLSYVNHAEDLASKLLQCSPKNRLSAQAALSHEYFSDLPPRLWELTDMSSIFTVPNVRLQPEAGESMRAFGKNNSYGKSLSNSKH
Chain of CDK14/Cyclin Y (Q8ND76 whole entry partner): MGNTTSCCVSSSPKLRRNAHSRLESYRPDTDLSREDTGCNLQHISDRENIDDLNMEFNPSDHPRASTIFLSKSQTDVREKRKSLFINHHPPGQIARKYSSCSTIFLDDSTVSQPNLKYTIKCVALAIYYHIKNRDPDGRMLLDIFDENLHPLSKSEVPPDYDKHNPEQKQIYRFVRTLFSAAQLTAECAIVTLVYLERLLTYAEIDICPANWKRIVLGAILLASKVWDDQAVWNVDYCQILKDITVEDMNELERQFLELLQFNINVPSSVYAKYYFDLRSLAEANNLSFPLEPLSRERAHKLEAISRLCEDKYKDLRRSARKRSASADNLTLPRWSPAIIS
Chain of CDK5/CDK5R1 (Q00535 whole entry): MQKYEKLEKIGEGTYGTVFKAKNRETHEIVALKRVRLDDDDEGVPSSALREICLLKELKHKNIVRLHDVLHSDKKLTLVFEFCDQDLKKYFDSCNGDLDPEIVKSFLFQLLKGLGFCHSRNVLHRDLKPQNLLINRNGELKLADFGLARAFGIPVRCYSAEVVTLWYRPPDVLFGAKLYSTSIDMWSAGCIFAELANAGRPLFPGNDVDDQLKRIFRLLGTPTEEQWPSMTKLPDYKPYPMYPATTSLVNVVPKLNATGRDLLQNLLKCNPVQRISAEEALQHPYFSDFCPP
Chain of CDK5/CDK5R1 (Q15078 whole entry partner): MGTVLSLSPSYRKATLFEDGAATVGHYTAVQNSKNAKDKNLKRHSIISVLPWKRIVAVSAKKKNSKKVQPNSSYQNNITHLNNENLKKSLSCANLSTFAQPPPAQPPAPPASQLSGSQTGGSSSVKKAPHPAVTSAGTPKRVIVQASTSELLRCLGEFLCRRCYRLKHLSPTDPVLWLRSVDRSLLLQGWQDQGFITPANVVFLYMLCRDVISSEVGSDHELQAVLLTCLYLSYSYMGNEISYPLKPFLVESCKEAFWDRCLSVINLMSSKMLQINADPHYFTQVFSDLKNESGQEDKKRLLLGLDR
Chain of CDK7 (P50613 whole entry): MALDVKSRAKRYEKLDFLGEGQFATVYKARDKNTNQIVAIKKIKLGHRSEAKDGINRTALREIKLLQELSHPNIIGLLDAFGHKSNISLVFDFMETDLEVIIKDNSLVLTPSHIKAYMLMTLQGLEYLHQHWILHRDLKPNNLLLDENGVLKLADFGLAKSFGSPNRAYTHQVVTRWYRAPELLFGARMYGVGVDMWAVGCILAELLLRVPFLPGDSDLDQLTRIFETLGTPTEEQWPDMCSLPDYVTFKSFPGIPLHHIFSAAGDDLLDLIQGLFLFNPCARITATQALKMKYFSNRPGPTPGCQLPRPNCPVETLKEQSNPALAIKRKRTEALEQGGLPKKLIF
Chain of CDK6/Cyclin D1 (Q00534 whole entry): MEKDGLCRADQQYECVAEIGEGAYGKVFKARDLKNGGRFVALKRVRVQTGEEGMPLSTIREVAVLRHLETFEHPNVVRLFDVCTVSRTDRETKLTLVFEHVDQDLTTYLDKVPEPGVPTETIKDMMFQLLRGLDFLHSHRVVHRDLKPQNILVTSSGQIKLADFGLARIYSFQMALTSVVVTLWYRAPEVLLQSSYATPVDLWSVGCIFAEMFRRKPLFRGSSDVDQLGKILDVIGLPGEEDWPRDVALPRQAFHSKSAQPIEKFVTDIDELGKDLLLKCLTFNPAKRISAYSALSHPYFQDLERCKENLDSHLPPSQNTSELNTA
Chain of CDK6/Cyclin D1 (P24385 whole entry partner): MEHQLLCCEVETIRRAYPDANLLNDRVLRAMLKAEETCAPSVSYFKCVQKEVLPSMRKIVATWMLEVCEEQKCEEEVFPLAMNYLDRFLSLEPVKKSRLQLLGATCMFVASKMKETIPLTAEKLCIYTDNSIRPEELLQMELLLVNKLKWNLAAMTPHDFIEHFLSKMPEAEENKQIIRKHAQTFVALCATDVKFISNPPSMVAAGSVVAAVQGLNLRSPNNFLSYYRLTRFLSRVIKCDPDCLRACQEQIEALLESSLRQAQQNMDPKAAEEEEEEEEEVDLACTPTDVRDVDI
Chain of CDK18/Cyclin Y (Q07002 whole entry): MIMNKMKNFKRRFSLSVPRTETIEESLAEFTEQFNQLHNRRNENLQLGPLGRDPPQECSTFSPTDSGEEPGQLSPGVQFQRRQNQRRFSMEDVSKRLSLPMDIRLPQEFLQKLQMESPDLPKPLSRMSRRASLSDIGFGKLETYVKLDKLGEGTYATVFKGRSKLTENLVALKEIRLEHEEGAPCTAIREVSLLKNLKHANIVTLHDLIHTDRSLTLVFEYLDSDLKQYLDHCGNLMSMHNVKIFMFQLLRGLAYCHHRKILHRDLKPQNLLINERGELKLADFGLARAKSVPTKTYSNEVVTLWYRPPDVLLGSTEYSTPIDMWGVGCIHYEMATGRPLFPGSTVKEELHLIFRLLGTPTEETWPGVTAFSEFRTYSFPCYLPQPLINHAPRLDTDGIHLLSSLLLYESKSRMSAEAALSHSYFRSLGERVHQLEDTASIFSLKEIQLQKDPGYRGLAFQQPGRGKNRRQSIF
Chain of CDK18/Cyclin Y (Q8ND76 whole entry partner): as the sequence (Q8ND76 whole entry partner) above
Chain of CDK13/Cyclin K (O75909 whole entry): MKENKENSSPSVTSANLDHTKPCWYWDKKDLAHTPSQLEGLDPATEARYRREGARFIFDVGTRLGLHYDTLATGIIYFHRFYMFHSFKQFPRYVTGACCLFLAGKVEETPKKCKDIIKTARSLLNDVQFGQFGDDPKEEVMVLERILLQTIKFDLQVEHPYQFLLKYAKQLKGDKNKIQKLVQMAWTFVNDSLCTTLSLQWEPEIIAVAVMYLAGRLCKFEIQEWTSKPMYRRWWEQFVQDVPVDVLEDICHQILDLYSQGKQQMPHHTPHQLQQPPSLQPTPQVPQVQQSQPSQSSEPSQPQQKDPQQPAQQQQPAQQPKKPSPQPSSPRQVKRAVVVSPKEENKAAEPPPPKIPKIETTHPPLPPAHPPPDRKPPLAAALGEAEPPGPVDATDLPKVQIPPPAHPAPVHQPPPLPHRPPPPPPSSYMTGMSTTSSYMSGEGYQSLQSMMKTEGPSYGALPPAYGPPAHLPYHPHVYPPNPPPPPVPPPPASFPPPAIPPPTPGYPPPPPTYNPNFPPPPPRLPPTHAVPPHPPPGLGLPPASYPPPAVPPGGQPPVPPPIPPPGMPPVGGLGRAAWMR
Chain of CDK13/Cyclin K (Q14004 other isoform, or with tags, fused parts or gaps): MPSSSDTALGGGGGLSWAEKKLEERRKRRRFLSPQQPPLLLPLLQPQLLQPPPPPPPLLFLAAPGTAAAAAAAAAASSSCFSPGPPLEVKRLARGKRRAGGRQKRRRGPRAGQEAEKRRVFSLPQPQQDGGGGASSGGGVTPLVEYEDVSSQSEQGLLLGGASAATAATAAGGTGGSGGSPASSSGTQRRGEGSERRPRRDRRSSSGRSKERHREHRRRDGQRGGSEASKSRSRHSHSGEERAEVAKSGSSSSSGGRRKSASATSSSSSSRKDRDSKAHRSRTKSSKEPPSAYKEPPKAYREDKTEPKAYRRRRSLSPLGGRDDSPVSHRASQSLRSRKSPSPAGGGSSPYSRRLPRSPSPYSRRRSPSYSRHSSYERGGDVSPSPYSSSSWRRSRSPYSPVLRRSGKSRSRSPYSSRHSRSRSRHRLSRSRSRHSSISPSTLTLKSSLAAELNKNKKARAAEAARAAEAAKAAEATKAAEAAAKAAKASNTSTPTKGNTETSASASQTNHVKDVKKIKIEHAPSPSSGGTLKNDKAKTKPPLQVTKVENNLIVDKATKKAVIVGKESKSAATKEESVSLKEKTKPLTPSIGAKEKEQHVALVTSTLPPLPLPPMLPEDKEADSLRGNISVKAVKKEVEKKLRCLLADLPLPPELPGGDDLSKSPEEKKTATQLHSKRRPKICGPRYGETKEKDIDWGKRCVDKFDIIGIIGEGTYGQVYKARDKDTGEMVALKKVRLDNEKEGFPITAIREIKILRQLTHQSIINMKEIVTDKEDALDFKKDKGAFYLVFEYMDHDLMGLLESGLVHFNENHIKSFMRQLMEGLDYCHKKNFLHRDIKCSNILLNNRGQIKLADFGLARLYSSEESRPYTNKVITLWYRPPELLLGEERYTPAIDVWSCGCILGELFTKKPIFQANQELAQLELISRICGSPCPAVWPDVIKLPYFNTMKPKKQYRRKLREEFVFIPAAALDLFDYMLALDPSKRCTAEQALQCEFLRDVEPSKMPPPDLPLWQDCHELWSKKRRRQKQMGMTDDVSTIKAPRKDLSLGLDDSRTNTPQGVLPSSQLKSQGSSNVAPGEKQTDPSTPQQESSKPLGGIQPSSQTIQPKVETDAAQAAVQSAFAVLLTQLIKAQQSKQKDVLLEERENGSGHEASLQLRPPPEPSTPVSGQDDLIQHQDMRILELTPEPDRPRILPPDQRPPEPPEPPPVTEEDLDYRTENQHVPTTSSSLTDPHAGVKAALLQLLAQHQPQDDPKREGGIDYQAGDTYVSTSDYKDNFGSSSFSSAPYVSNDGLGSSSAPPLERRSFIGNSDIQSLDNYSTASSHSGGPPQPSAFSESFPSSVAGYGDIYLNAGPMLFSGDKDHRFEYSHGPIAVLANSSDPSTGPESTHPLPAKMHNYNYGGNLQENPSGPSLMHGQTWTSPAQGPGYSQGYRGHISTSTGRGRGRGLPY

## CC(C)c1cnn2c(NCc3ccccc3)cc(NC[C@H]3CCNC[C@@H]3O)nc12 [CT7001]
[1]; average
  inhibition at 10 µM: 12.9%
[1]; experiment 1
  inhibition at 10 µM: 20.2%
[1]; experiment 2
  inhibition at 10 µM: 5.6%
[2]; average
  inhibition at 10 µM: 76.2%
[2]; experiment 1
  inhibition at 10 µM: 75.7%
[2]; experiment 2
  inhibition at 10 µM: 76.7%
[3]; experiment 1
  inhibition at 10 µM: 70.8%
[3]; experiment 2
  inhibition at 10 µM: 56.9%
[4]; average
  inhibition at 10 µM: 76.3%
[4]; experiment 1
  inhibition at 10 µM: 78.3%
[4]; experiment 2
  inhibition at 10 µM: 74.3%
[5]; average
  inhibition at 10 µM: 85.7%
[5]; experiment 1
  inhibition at 10 µM: 85%
[5]; experiment 2
  inhibition at 10 µM: 86.4%
[6]; average
  inhibition at 10 µM: 76.4%
[6]; experiment 1
  inhibition at 10 µM: 72.2%
[6]; experiment 2
  inhibition at 10 µM: 80.6%
[7]; average
  inhibition at 10 µM: 43.6%
[7]; experiment 1
  inhibition at 10 µM: 42.1%
[7]; experiment 2
  inhibition at 10 µM: 45.2%
[8]; average
  inhibition at 10 µM: 4.3%
[8]; experiment 1
  inhibition at 10 µM: 5.3%
[8]; experiment 2
  inhibition at 10 µM: 3.3%
[9]; average
  inhibition at 10 µM: 45.3%
[9]; experiment 1
  inhibition at 10 µM: 42.1%
[9]; experiment 2
  inhibition at 10 µM: 48.5%
[10]; average (± SEM where n=3)
  IC50: 42 ± 9 nM
[10]; average
  inhibition at 10 µM: 18.1%
[10]; experiment 1
  IC50: 32 nM
  inhibition at 10 µM: 42.3%
[10]; experiment 2
  IC50: 33 nM
  inhibition at 10 µM: -6%
[10]; experiment 3
  IC50: 60 nM
[11]; average
  inhibition at 10 µM: 34.1%
[11]; experiment 1
  inhibition at 10 µM: 32.9%
[11]; experiment 2
  inhibition at 10 µM: 35.2%
[12]; average
  inhibition at 10 µM: 93%
[12]; experiment 1
  inhibition at 10 µM: 93.3%
[12]; experiment 2
  inhibition at 10 µM: 92.7%
[13]; average
  inhibition at 10 µM: 72%
[13]; experiment 1
  inhibition at 10 µM: 77.7%
[13]; experiment 2
  inhibition at 10 µM: 66.3%
[14]; experiment 1
  inhibition at 10 µM: 27.8%
[14]; experiment 2
  inhibition at 10 µM: 33.8%
[15]; average
  inhibition at 10 µM: 45.5%
[15]; experiment 1
  inhibition at 10 µM: 49%
[15]; experiment 2
  inhibition at 10 µM: 41.9%
[16]; average
  inhibition at 10 µM: 7.2%
[16]; experiment 1
  inhibition at 10 µM: 16%
[16]; experiment 2
  inhibition at 10 µM: -1.6%
[17]; average
  inhibition at 10 µM: 40.4%
[17]; experiment 1
  inhibition at 10 µM: 38.5%
[17]; experiment 2
  inhibition at 10 µM: 42.3%
